Reference: the supplement of paper PMC6045584
± gives the standard deviation of the averaged measurements.

What was measured:
[1] = compound: C[C@H](CN(C)C)Oc1nc(Nc2cc3cccc(Cl)c3cn2)cnc1C#N; assay: surviving fraction relative to DMSO-only wells; higher = less growth inhibition; conditions: exposure time: 5 days
In short: (§1)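 Viability was scored with CellTiter-Glo luminescence and normalised to the median of DMSO-only wells as surviving fraction. Beforehand, log-phase tumour cell lines were seeded at 250–500 cells per well in 384-well plates, allowed 24 hours, and exposed continuously for five days to inhibitors at 0.5, 1, 5, 10, 50, 100, 500 and 1000 nM. Only lines whose three screens gave replicate Pearson r >0.7 and median Z' >0.3 were kept.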

[2] = compound: CCc1cc(Nc2nccc(-c3c(-c4ccc(OC)c(C(=O)Nc5c(F)cccc5F)c4)nc4ccccn34)n2)c(OC)cc1N1CCC(N2CCN(S(C)(=O)=O)CC2)CC1; assay: as above; conditions: exposure time: 5 days
In short: as §1

Test System	surviving fraction ([1]; 0.5 nM)	surviving fraction ([1]; 1 nM)	surviving fraction ([1]; 5 nM)	surviving fraction ([1]; 10 nM)	surviving fraction ([1]; 50 nM)	surviving fraction ([1]; 100 nM)	surviving fraction ([1]; 500 nM)	surviving fraction ([1]; 1000 nM)	surviving fraction ([2]; 0.5 nM)	surviving fraction ([2]; 1 nM)	surviving fraction ([2]; 5 nM)	surviving fraction ([2]; 10 nM)	surviving fraction ([2]; 50 nM)	surviving fraction ([2]; 100 nM)	surviving fraction ([2]; 500 nM)	surviving fraction ([2]; 1000 nM)
SG27 HEADNECK	1.14 ± 0.17	0.995 ± 0.085	1.11 ± 0.12	0.997 ± 0.04	1.1 ± 0.028	1.03 ± 0.065	1.16 ± 0.062	1.15 ± 0.097	1.04 ± 0.066	0.999 ± 0.11	1.06 ± 0.065	1.13 ± 0.057	1.05 ± 0.065	1.17 ± 0.19	1.2 ± 0.034	1.15 ± 0.071
SG28 HEADNECK	1.02 ± 0.033	1.15 ± 0.033	0.996 ± 0.05	1.09 ± 0.19	1.04 ± 0.069	1.22 ± 0.31	1.11 ± 0.018	0.959 ± 0.18	1.01 ± 0.085	1.09 ± 0.099	1.04 ± 0.099	1.07 ± 0.082	1.1 ± 0.1	1.04 ± 0.041	1.22 ± 0.07	1.21 ± 0.061
SG31 HEADNECK	1.04 ± 0.091	1.08 ± 0.072	1.1 ± 0.28	1.07 ± 0.12	1.07 ± 0.16	1.07 ± 0.11	0.982 ± 0.14	0.967 ± 0.032	0.923 ± 0.036	1.08 ± 0.23	1.04 ± 0.2	0.903 ± 0.099	1.04 ± 0.14	1.14 ± 0.2	1.08 ± 0.26	1.1 ± 0.086
SG32 HEADNECK	1.17 ± 0.16	1.16 ± 0.24	1.06 ± 0.078	1.03 ± 0.1	1.05 ± 0.081	1.16 ± 0.23	0.748 ± 0.066	0.653 ± 0.11	1.07 ± 0.22	1.11 ± 0.026	1.15 ± 0.089	1.17 ± 0.15	1.15 ± 0.23	1.21 ± 0.1	1.6 ± 0.59	1.15 ± 0.017
SG43 HEADNECK	0.863 ± 0.068	0.929 ± 0.058	0.961 ± 0.13	0.933 ± 0.091	0.729 ± 0.078	0.585 ± 0.08	0.692 ± 0.082	0.91 ± 0.18	1.18 ± 0.18	1.1 ± 0.26	0.948 ± 0.15	0.985 ± 0.15	1.13 ± 0.046	0.908 ± 0.12	1.38 ± 0.024	1.25 ± 0.3
SIHA CERVIX	0.955 ± 0.041	0.981 ± 0.033	1.06 ± 0.037	1.05 ± 0.061	1.16 ± 0.014	1.11 ± 0.1	0.95 ± 0.092	1 ± 0.033	1.01 ± 0.019	1.04 ± 0.071	1.06 ± 0.055	1.11 ± 0.046	1.05 ± 0.084	1.18 ± 0.053	1.02 ± 0.037	1.09 ± 0.034
SJSA1 BONE	1.49 ± 0.044	1.65 ± 0.083	1.6 ± 0.17	1.57 ± 0.02	1.63 ± 0.14	1.74 ± 0.039	1.63 ± 0.2	1.69 ± 0.082	1.03 ± 0.038	0.99 ± 0.056	1.08 ± 0.066	1.1 ± 0.065	1.07 ± 0.013	1.09 ± 0.024	1.03 ± 0.056	1.03 ± 0.013
SKBR3 BREAST	1.04 ± 0.066	0.967 ± 0.066	0.881 ± 0.058	0.843 ± 0.063	1.06 ± 0.061	0.91 ± 0.18	0.667 ± 0.08	0.344 ± 0.019	1.04 ± 0.12	1.06 ± 0.18	1.05 ± 0.057	0.99 ± 0.089	0.983 ± 0.13	1.01 ± 0.099	0.849 ± 0.082	0.664 ± 0.048
SNU475 LIVER	0.989 ± 0.036	1.03 ± 0.019	1 ± 0.039	1.037 ± 0.005	1.02 ± 0.044	0.972 ± 0.04	0.968 ± 0.024	0.918 ± 0.024	0.88 ± 0.066	0.966 ± 0.042	0.982 ± 0.024	0.976 ± 0.062	0.982 ± 0.025	0.956 ± 0.023	0.957 ± 0.054	0.875 ± 0.061
SUM44 BREAST	1.14 ± 0.37	1.16 ± 0.3	1.24 ± 0.33	1.29 ± 0.47	1.23 ± 0.4	0.918 ± 0.25	0.284 ± 0.056	0.268 ± 0.066	1.07 ± 0.041	1.04 ± 0.015	1.06 ± 0.037	1.07 ± 0.023	1.07 ± 0.062	1.155 ± 0.0075	0.9687 ± 0.0055	0.994 ± 0.034
SUM149 BREAST	1.04 ± 0.091	1.02 ± 0.083	0.988 ± 0.086	1.07 ± 0.017	0.903 ± 0.07	0.836 ± 0.024	0.192 ± 0.0025	0.0843 ± 0.011	1.07 ± 0.059	1.14 ± 0.027	1.09 ± 0.035	1.12 ± 0.037	1.06 ± 0.14	1.11 ± 0.13	1.08 ± 0.081	1.05 ± 0.12
SUM149.B1*.S BREAST	1.06 ± 0.066	1.06 ± 0.023	1.03 ± 0.055	1.09 ± 0.029	1.11 ± 0.029	1.05 ± 0.029	0.941 ± 0.026	0.492 ± 0.024	0.994 ± 0.024	1.05 ± 0.033	1.05 ± 0.051	1.1 ± 0.02	1.01 ± 0.047	1.081 ± 0.01	1.05 ± 0.082	1.04 ± 0.048
SUM159 BREAST	1.04 ± 0.038	1.06 ± 0.034	1.05 ± 0.03	1.05 ± 0.033	1.06 ± 0.024	1.05 ± 0.024	1.03 ± 0.02	0.986 ± 0.0078	1.1 ± 0.27	1.17 ± 0.28	1.15 ± 0.24	1.14 ± 0.2	1.11 ± 0.21	1.12 ± 0.19	1.07 ± 0.14	1.08 ± 0.18
SYO1 SYNOVIAL	0.955 ± 0.038	0.963 ± 0.015	0.969 ± 0.017	0.941 ± 0.023	0.97 ± 0.026	0.835 ± 0.015	0.34 ± 0.0094	0.197 ± 0.014	0.945 ± 0.041	0.992 ± 0.031	0.948 ± 0.048	0.945 ± 0.045	0.969 ± 0.034	1.02 ± 0.044	0.949 ± 0.03	0.895 ± 0.022
T47D BREAST	1.02 ± 0.043	1.06 ± 0.044	1.04 ± 0.027	1.03 ± 0.032	1.1 ± 0.046	1.14 ± 0.029	0.919 ± 0.063	0.766 ± 0.024	1.06 ± 0.042	1.04 ± 0.027	1.05 ± 0.031	1.07 ± 0.016	1.06 ± 0.056	1.14 ± 0.051	1.03 ± 0.036	0.997 ± 0.014
U2OS BONE	1.04 ± 0.053	1 ± 0.039	1.02 ± 0.027	0.993 ± 0.081	1.05 ± 0.043	1.03 ± 0.025	0.277 ± 0.028	0.159 ± 0.013	0.992 ± 0.02	1 ± 0.017	1.06 ± 0.025	1.031 ± 0.0015	1.06 ± 0.023	1.06 ± 0.035	1.01 ± 0.013	0.975 ± 0.019
VCAP PROSTATE	0.969 ± 0.098	1.03 ± 0.14	1.1 ± 0.11	1.08 ± 0.11	1.12 ± 0.033	1.01 ± 0.16	0.715 ± 0.12	0.35 ± 0.039	1.02 ± 0.1	1.05 ± 0.072	0.986 ± 0.12	1.07 ± 0.042	0.984 ± 0.091	1.05 ± 0.03	1.03 ± 0.055	0.9673 ± 0.0061
VP229 BREAST	0.984 ± 0.1	1.02 ± 0.056	1.1 ± 0.12	1.04 ± 0.14	1.05 ± 0.096	1.09 ± 0.042	1.04 ± 0.086	0.86 ± 0.028	1.13 ± 0.059	1.08 ± 0.033	1.24 ± 0.11	1.17 ± 0.063	1.09 ± 0.13	1.09 ± 0.052	1.18 ± 0.17	0.875 ± 0.12
YAMATO SYNOVIAL	1.12 ± 0.038	1.24 ± 0.086	1.17 ± 0.05	1.2 ± 0.13	1.18 ± 0.067	1.18 ± 0.037	0.806 ± 0.052	0.622 ± 0.074	1.32 ± 0.085	1.34 ± 0.1	1.44 ± 0.085	1.28 ± 0.023	1.36 ± 0.066	1.42 ± 0.1	1.2 ± 0.19	0.873 ± 0.091
ZR751 BREAST	1.07 ± 0.13	1.07 ± 0.085	1.08 ± 0.17	0.991 ± 0.078	0.867 ± 0.13	0.909 ± 0.15	0.543 ± 0.082	0.587 ± 0.042	0.886 ± 0.14	0.98 ± 0.062	0.876 ± 0.11	0.935 ± 0.1	0.87 ± 0.07	0.895 ± 0.12	0.928 ± 0.094	0.954 ± 0.093
